# Experimental data taken from ChEMBL document CHEMBL1201862, “PubChem BioAssay data set” (2004).
# Active and inactive are the calls of the source.
# Columns and labels:
# Vero = assay: cells; format: functional; conditions: Chlorocebus sabaeus
# [1] = HeLa cell cytotoxicity, dose response, cytotoxicity control for MgcRacGAP inhibitor project (AID 624300); format: functional
# [2] = biological target: T1, Rac GTPase-activating protein 1 (Homo sapiens, UniProt Q9H0H5); assay: MgcRacGAP GTPase-activating activity inhibitors, confirmation, biochemical, ADP Hunter fluorescence, primary and confirmatory (AID 624330); format: functional
# T1 sequence (Q9H0H5 whole entry): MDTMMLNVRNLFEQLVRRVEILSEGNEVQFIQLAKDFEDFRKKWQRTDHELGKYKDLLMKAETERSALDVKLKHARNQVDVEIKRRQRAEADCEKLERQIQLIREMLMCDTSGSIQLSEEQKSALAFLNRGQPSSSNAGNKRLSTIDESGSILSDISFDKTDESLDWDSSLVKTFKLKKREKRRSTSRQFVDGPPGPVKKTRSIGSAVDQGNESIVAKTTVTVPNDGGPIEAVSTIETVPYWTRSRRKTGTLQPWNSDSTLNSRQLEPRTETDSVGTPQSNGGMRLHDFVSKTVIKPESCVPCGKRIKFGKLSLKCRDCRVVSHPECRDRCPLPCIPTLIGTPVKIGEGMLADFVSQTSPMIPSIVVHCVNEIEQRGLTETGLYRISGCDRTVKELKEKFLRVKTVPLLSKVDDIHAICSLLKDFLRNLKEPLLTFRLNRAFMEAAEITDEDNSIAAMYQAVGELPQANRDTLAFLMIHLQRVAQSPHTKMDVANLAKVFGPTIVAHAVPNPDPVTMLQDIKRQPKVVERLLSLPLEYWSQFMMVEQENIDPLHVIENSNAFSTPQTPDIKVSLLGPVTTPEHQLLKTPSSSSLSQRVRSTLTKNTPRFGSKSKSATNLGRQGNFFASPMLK
# [3] = inhibitors of intracellular T. cruzi replication, confirmation, NIH3T3 host cells, beta-gal luminescence (AID 2044); format: functional, cell-based;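 also: intracellular parasites grown in NIH/3T3 mouse fibroblasts as host cells; luminescent beta-galactosidase reporter signal from transgenic T. cruzi replicating inside host cells; inhibitors lower the luminescence signal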
# [4] = cytotoxicity toward NIH3T3 fibroblasts, dose response, counter-screen, cell-based, ATP luminescence, mouse fibroblasts (AID 2010); format: functional;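 also: cells exposed to compound for about 90 hours before reading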
# [5] = biological target: T2, Microphthalmia-associated transcription factor (Homo sapiens, UniProt O75030); assay: TRPM1 promoter luciferase signal decrease, dose response, MITF inhibitor project, cell-based, SK-MEL-5, cherry-picked, set 3 (AID 493073); format: functional
# T2 sequence (O75030 whole entry): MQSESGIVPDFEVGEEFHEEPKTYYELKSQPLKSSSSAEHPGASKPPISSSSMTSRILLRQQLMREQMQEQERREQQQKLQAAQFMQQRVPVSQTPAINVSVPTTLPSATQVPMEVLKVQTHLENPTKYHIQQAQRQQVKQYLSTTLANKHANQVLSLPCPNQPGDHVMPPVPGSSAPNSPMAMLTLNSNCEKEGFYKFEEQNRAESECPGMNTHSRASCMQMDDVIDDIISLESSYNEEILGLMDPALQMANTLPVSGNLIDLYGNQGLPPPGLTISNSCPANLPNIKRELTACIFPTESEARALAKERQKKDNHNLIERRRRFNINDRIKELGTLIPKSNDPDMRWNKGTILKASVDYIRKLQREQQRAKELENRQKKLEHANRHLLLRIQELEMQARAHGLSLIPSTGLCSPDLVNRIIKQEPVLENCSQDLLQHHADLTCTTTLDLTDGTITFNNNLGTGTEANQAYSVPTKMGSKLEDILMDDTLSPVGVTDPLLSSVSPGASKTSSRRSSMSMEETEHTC
# H9c2 = assay: cells; format: functional, cell-based; conditions: Rattus norvegicus, H9c2, Myocardium;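 also: confirmatory concentration-response retest of ultra-high-throughput screening hits for modulation of myocardial damage; cell death induced by hydrogen peroxide oxidative stress; compound pretreatment for 60 min then peroxide exposure for 2 h; potency is for protecting the cells against peroxide damage rather than for killing them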
# [6] = biological target: T3, Carboxy-terminal domain RNA polymerase II polypeptide A small phosphatase 1 (Homo sapiens, UniProt Q9GZU7); assay: inhibitors of CTDSP1, concentration-response testing, biochemical assay, absorbance-based, actives from ultra-high-throughput screening (AID 540297); format: functional
# T3 sequence (Q9GZU7 whole entry): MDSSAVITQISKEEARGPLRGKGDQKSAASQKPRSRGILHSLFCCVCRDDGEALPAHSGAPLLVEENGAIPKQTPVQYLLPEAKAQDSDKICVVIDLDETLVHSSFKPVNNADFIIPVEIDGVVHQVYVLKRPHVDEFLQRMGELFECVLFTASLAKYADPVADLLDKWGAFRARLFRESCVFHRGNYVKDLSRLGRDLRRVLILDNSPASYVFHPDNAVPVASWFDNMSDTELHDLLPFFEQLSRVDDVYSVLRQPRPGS
# [7] = biological target: T4, Zinc finger protein mex-5 (Caenorhabditis elegans, UniProt Q9XUB2); assay: MEX-5/TCR-2 RNA interaction inhibitors, dose response, biochemical, C. elegans, fluorescence polarization (AID 1960)
# T4 sequence (Q9XUB2 whole entry): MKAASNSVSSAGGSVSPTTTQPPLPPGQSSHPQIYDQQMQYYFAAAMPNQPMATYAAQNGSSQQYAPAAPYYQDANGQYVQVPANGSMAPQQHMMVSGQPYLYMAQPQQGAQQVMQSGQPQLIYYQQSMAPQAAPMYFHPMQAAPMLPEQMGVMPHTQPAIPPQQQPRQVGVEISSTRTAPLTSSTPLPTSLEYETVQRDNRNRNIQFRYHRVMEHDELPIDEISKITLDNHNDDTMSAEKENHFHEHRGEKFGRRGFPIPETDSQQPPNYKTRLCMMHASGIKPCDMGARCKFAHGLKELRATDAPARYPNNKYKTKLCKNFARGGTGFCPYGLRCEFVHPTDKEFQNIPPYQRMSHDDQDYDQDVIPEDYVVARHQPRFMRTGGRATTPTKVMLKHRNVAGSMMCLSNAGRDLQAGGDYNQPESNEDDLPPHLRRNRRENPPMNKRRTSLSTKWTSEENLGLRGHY
# [8] = biological target: T5, RNA-binding protein pos-1 (Caenorhabditis elegans, UniProt G5EF15); assay: inhibitors of POS-1/mex-3 RNA binding, dose response, biochemical, fluorescence polarization (AID 1964);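 also: purified POS-1 fused to maltose binding protein made in E. coli; potency of compounds blocking POS-1 binding to fluorescent RNA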
# T5 sequence (G5EF15 whole entry): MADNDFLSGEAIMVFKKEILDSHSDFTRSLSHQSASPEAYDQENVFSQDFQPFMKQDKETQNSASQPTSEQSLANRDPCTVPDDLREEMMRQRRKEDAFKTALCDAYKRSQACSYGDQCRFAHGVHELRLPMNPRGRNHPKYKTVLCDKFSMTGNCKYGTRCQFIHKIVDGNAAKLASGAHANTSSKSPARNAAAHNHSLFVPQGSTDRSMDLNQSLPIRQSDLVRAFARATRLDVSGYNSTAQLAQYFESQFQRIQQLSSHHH
# [9] = cytotoxicity in HEK-293T cells, dose response, cytotoxicity control for TCR NF-kB inhibitor project, luminescence, T-cell screen hits (AID 489026); format: functional, cell-based;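 also: cells exposed to compound about 14 hours before the viability readout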
# [10] = Luminescence Cell-Based Dose Retest to Confirm Inhibitors of Cancer Stem Cells. [Related pubchem assays (depositor defined):AID2717, AID2721]; format: functional; conditions: Homo sapiens
# [11] = HepG2 cell cytotoxicity, dose response, cytotoxicity control for Shn3 inhibitor project, CellTiter-Glo, cherry-picked (AID 624134); format: functional, cell-based
# [12] = Shn3 3'UTR reporter inhibitors, dose response, cell-based, Clone20 osteoblasts, firefly luciferase, cherry-picked (AID 624132); format: functional;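 also: firefly luciferase luminescence from reporter carrying the Shn3 3'UTR in osteoblasts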
# [13] = control 3'UTR Renilla luciferase suppression, dose response, counter-screen for Shn3 inhibitor project, cell-based, Clone20-Shn3RL, cherry-picked (AID 624133); format: functional
# [14] = inhibitors of SNCA 5'UTR-driven reporter translation, confirmation, H4 neuroglioma cells, luminescence (AID 1988); format: functional, cell-based
# [15] = inhibitors of firefly luciferase expression or activity, dose response, H4 neuroglioma cells, luminescence (AID 1990); format: functional, cell-based
# [16] = Luminescence Cell-Based Dose Response HTS to Identify Inhibitors of 5'UTR Stem-Loop Driven Prion Protein mRNA Translation in H4 Neuroglioblastoma Cells. [Related pubchem assays: 1827 (Project Summary), 1813 (Primary HTS)]; format: functional
# cells = format: functional
# [17] = Vero E6 cell cytotoxicity, dose response, cytotoxicity control for non-replicating M. tuberculosis project, secondary assay (AID 492998); format: functional, VeroE6; conditions: Vero C1008
# [18] = biological target: T6, Heat shock factor protein 1 (Mus musculus, UniProt P38532); assay: inhibition of MG132-induced HSE-luciferase signal, confirmation, cell-based, NIH3T3, luminescence, dose retest (AID 2382); format: functional;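 also: NIH3T3 fibroblasts with HSF1-driven luciferase reporter stressed by proteasome inhibitor MG132; luminescence from HSF1-driven luciferase expression after 8 hours of MG132 stress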
# T6 sequence (P38532 whole entry): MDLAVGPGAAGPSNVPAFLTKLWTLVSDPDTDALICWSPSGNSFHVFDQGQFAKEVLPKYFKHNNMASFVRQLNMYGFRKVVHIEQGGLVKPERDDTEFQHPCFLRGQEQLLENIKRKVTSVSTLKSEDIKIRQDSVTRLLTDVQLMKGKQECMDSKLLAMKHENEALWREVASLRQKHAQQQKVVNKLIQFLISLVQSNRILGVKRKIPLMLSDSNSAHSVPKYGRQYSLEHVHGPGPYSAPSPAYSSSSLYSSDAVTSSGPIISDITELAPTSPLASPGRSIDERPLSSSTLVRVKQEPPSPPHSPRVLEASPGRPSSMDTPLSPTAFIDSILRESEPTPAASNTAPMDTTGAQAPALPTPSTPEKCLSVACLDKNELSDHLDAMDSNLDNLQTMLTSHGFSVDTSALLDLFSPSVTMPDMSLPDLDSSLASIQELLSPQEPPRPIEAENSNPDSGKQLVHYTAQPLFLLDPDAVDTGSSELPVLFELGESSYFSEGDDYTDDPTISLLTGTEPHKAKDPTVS
smiles,measurement,setting,value
COc1ccc(-n2cccc2/C=C/[N+](=O)[O-])cc1,CC50,Vero,16 µM (active)
same,CC50,[1],42.3 µM (active)
same,IC50,[2],44 µM (active)
O=C(Nc1ccc(N2CCN(C(=O)c3ccc(Cl)cc3)CC2)cc1)c1ccc([N+](=O)[O-])o1,EC50,[3],1.81 µM (active)
same,EC50,[4],32.8 µM (active)
same,AC50,[5],7.32 µM (active)
O=C(CCc1nc(O)c2ccccc2n1)N1CCN(S(=O)(=O)c2cccc([N+](=O)[O-])c2)CC1,IC50,H9c2,> 79 µM (inactive)
CCOC(=O)c1ccc2c(c1)[n+](CC)c(/C=C/N(C)c1ccccc1)n2CC,IC50,[6],4.04 µM (active)
same,AC50,[5],3.24 µM (active)
COc1cc2c(cc1N=C(S)Nc1cccc(C(F)(F)F)c1)oc1ccccc12,CC50,[1],100 µM (active)
same,IC50,[2],225 µM (active)
CCCCN1C(=O)/C(=C2/Sc3ccc(OC)cc3N2CC)SC1=S,EC50,[7],> 300 µM (inconclusive)
same,EC50,[8],> 300 µM (inconclusive)
Cc1cc(C)c(C)c(S(=O)(=O)N2CCN(C(=O)CCc3nc(O)c4ccccc4n3)CC2)c1C,IC50,H9c2,> 79 µM (inactive)
Cc1cc2c(cc1C)C(c1ccccc1OC(C)C)CC(=O)N2 (stereo unspecified),IC50,[9],62.2 µM (inactive)
same,AC50,[10],0.796 µM (active)
CC1(C)CC(=O)C2=C(C1)OC(N)=C(C#N)C21C(=O)N2CCCc3cccc1c32 (stereo unspecified),EC50,[7],> 300 µM (not active)
same,EC50,[8],> 300 µM (not active)
O=S(=O)(NNC(=S)Nc1ccc(S(=O)(=O)Nc2ncccn2)cc1)c1ccc(Br)cc1,EC50,[7],5.04 µM (active)
same,EC50,[8],2.97 µM (inconclusive)
C[C+](C)[N-]Oc1cc(NC(=O)CCl)cc([N+](=O)[O-])c1,AC50,[5],6.18 µM (active)
CCOC(=O)N1CCC(NC(=O)C2CCCN(Cc3nc(-c4cccc(C)c4)oc3C)C2)CC1 (stereo unspecified),AC50,[11],55.6 µM (active)
same,AC50,[12],3.06 µM (active)
same,AC50,[13],7.52 µM (active)
same,AC50,[5],34.9 µM (active)
COc1ccc(C)c(Cn2c(-c3nonc3N)nc3ccccc32)c1,IC50,[9],> 80 µM (inactive)
OCCCNc1ncnc2sc3c(c12)CCN(Cc1ccccc1)C3,EC50,[7],24.9 µM (active)
same,EC50,[8],> 300 µM (not active)
CCOc1cc(/C=C(\C#N)c2[nH]nc(N)c2C#N)ccc1O,EC50,[14],> 120 µM (not active)
same,CC50,[1],100 µM (active)
same,EC50,[15],11.9 µM (active)
same,EC50,[16],14.6 µM (active)
O=C(NCc1cccs1)C1CCN(c2ccc(S(=O)(=O)N3CCOCC3)cc2Cl)CC1,IC50,[9],> 80 µM (inactive)
Cc1cc(C)n2[nH]c(=O)c(N=Nc3cccc(Cl)c3)c2n1,IC50,cells,17.7 µM (active)
same,CC50,[17],> 20 µM (active)
Nc1ccccc1C(=O)NNc1c2ccccc2nc2ccccc12,CC50,[1],100 µM (active)
same,IC50,[2],98.3 µM (active)
c1ccc(-c2nn3c(-c4ccco4)nnc3s2)nc1,IC50,H9c2,12.8 µM (active)
CCOc1ccccc1NC(=O)c1oc2ccccc2c1NC(=O)C1CCCO1 (stereo unspecified),IC50,H9c2,> 79 µM (inactive)
COc1ccc(/C=C2\CCCC(C(=O)C(F)(F)F)=C2O)cc1OC,EC50,[7],254 µM (inconclusive)
same,EC50,[8],> 300 µM (not active)
Cn1c(=O)c2nc(NN=Cc3ccc(Br)cc3)[nH]c2n(C)c1=O,IC50,H9c2,> 79 µM (inactive)
COc1ccc(-c2csc(/C(C#N)=C(\O)CSc3nccn3C)n2)cc1OC,IC50,H9c2,> 79 µM (inactive)
same,EC50,[18],> 195 µM (not active)
Cc1n[nH]c(O)c1/C=N/N1CCOCC1,EC50,[7],> 300 µM (not active)
same,EC50,[8],> 300 µM (not active)
